Test results published in PMC8179358, “An explicitly designed paratope of amyloid-β prevents neuronal apoptosis in vitro and hippocampal damage in rat brain” (Chemical Science, 2020).

Tested on: Bax, Bcl-2
Assay: Western blot, Bax and Bcl-2
Type: cell-based, human
Conditions: Aβ40 alone (10 μM), compared to healthy cells
Description: e. Measurement of intracellular calcium (Ca 2+)
Ca2+sensitive dye Fura-2AM was used to measure free intracellular Ca2+level in SH-SY5Y cell suspension by the previously described method.12 Following treatment with the respective drug, Fura-2 AM (Cayman, USA) at a concentration of 5 µM was added to the culture medium and incubated at 37°C for 45 min. Next, Krebs-Ringer-HEPES (KRH) buffer (135mM NaCl, 5mM KCl, 1mM MgSO4, 0.4mM KH2PO4, 1mM CaCl2, 5.5mM glucose, 20mM HEPES, pH 7.4) was used to wash each plate twice containing (1×10^6cells). Fluorescent microplate reader (FLX 800, Biotek, USA) was used to measure the fluorescence intensity with an excitation and emission spectra of […], respectively. Results are Mean±SEM of quadruplicate measurements from three separate experiments and expressed in the increase in percent relative fluorescent unit (RFU) relative to the baseline reading.
Western blot analysis was performed to measure Bax, Bcl-2, cleaved Caspase 9 and cleaved Caspase 3, pro and anti-apoptotic proteins expression. About 5× 10^6 cells were washed with PBS twice following […]
overnight. […] The optical density (OD) value of each band was analyzed by the electrophoresis image analysis system (Smartview 2001, S/N: SV-0002202, Japan) and normalized against the corresponding β-actin band. […]

Aβ40: commercially available Aβ40 peptide
ratio of Bax/Bcl-2 expression: ~3.2 fold
